Laboratory results published in patent publication US8334292B1, “Pyrimidine compounds and methods of making and using same” (Cystic Fibrosis Foundation Therapeutics, Inc., priority 2010, dated 2012).

Columns and labels:
ΔF508 CTFR [1] = target: T1, ΔF508 CTFR (Homo sapiens, UniProt P13569, DEL508-508); assay: Corrector assay, FRT cell electrophysiological (Ussing chamber) assay; assay type: cell-based; details: FRT cells treated 24 hours with 3 μM compound; total change in ISC normalized to 10 μM reference corrector C17
T1 construct: expressed in transfected cells; host or cells: FRT epithelial cells (Fischer rat thyroid)
Method: (§1) For use in the corrector assay, FRT epithelial cell monolayers are grown on Snapwell filter inserts and optionally treated with a compound of invention, vehicle (DMSO) or reference corrector N-(2-(5-chloro-2-methoxyphenylamino)-4′-methyl-4,5′-bithiazol-2′-yl)pivalamide (C17). Cells are exposed to compound, vehicle (negative control) or reference corrector (positive control) in a cell/tissue incubator at 37° C. for 24 hours prior to the assay. The inserts are then transferred to a Physiologic Instruments Ussing chamber (P2302) and superfused with 5 ml of a HEPES buffered physiological saline (HB-PS) as the serosal solution with composition (in mM): NaCl, 137; KCl, 4.0; CaCl2, 1.8; MgCl2, 1; HEPES, 10; Glucose, 10; pH adjusted to 7.4 with NaOH. The mucosal solution will be 5 ml of 10CF—PS with composition (in mM): Na-gluconate, 137; KCl, 4; CaCl2, 1.8; MgCl2, 1; HEPES, 10; Glucose, 10; pH adjusted to 7.4 with N-methyl-D-glucamine to create a transepithelial Cl ion gradient. Transepithelial voltage is clamped to 0 mV and the short circuit current (ISC)—reflecting the net ion (Cl—) transport across the epithelial cell monolayer—is measured using a Physiologic Instruments VCC MC8 epithelial voltage clamp (Physiologic Instruments, Inc., San Diego, Calif.). The assay is carried out at 27° C.
(§2) After acquisition of at least 10 minutes of baseline current, agonists (final concentrations: 10 μM forskolin, 100 μM 3-isobutyl-1-methylxanthine [IBMX] and 20 μM genistein) and antagonist (final concentration: 20 μM CFTRinh-172) will be applied sequentially and cumulatively at ˜10-15 minute intervals to both serosal and mucosal epithelial surfaces. On occasion where a 10-15 min interval is not sufficient for ISC to reach a new steady-state after compound addition, the interval between compound additions may have been extended.
(§3) Agonists are added as 200×-1000× stock solutions to both the serosal and mucosal sides. Transepithelial resistance is monitored every 20 s. In a potentiator assay, appropriate volumes from 10 mM compound stock solution in DMSO are added to the mucosal side (i.e. the 10CF—PS solution containing half chamber) of vehicle treated inserts. Compound is added acutely after activation of CFTR by Forskolin and prior to additions of IBMX, genistein, and CFTRinh-172.
(§4) Corrector efficacy—as given in Table 3—is measured as the total change in ISC (i.e. the difference in ISC before and after addition of all agonists) obtained from cells treated with 3 μM compound of invention and normalized to the total change in ISC obtained from the same batch of cells treated contemporaneously with 10 μM reference corrector C17. Potentiator efficacy—as given in Table 3—is measured as the change in ISC after acute addition of 1 μM compound to the mucosal side of vehicle treated cells divided by the total change in ISC after sequential additions of 1 μM compound, 100 μM IBMX, and 20 μM genistein.

ΔF508 CTFR [2] = target: T1, ΔF508 CTFR; assay: Potentiator assay, FRT cell electrophysiological (Ussing chamber) assay; assay type: cell-based; details: change in ISC after acute addition of 1 μM compound to mucosal side of vehicle treated FRT cells divided by total change in ISC after 1 μM compound, 100 μM IBMX, 20 μM genistein
Method: as §1, §2, §3, §4

T1 sequence (P13569 with tags, fused parts or gaps DEL508-508): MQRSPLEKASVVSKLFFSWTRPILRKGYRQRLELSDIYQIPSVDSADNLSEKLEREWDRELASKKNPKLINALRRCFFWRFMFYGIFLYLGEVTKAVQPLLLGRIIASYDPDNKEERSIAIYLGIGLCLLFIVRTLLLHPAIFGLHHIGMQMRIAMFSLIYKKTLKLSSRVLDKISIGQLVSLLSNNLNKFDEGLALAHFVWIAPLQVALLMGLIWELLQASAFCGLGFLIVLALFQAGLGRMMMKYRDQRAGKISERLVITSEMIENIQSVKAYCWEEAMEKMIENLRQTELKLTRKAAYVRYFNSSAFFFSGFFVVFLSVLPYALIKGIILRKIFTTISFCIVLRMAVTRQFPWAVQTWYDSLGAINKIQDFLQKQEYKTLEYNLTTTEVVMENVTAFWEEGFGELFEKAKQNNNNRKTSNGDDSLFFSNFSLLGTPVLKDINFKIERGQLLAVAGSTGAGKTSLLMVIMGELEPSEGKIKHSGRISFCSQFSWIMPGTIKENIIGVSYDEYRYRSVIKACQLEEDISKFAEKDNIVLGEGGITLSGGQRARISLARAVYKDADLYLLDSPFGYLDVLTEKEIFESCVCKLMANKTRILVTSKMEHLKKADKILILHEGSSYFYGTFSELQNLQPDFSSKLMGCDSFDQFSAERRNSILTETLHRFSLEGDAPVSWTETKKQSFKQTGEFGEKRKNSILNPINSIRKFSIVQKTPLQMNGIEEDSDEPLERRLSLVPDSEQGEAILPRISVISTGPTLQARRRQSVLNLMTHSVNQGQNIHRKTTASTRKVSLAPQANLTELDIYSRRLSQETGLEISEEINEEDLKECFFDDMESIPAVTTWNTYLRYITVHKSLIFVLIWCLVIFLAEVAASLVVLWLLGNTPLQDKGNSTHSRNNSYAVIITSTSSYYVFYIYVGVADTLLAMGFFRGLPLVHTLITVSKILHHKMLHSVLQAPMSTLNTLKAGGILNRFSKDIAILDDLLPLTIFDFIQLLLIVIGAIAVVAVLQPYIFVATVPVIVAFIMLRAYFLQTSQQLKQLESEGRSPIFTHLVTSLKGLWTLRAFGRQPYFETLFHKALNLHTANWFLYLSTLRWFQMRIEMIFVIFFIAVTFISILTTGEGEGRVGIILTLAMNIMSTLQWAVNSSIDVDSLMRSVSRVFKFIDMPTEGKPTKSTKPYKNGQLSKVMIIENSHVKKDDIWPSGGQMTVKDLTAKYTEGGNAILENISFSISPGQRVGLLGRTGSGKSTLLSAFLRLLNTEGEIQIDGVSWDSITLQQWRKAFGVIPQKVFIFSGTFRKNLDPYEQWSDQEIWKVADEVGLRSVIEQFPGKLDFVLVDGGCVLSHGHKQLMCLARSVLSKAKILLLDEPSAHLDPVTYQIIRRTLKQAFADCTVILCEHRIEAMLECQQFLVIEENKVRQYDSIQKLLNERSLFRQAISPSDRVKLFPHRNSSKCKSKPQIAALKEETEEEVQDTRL

Structure (SMILES)	Corrector Efficacy (ΔF508 CTFR [1])	Potentiator Efficacy (ΔF508 CTFR [2])
CN(C)S(=O)(=O)N1CC(Oc2nc(N[C@H]3CC[C@@H](C)CC3)ncc2-c2ccc(N3CCOCC3)cc2)C1 [Example 1, N,N-dimethyl-3-(2-((1s,4s)-4-methylcyclohexylamino)-5-(4-morpholinophenyl)-pyrimidin-4-yloxy)azetidine-1-sulfonamide]	+++ (+++=>0.6)	++ (++=0.1-0.25)
C[C@H]1CC[C@@H](Nc2ncc(-c3ccc(O[C@H]4CCOC4)cc3)c(O[C@@H]3CCOC3)n2)CC1.Cl [Example 6, 4-((R)-tetrahydrofuran-3-yloxy)-5-(4-((S)-tetrahydrofuran-3-yloxy)phenyl)-N-(cis-4-methylcyclohexyl)pyrimidin-2-amine hydrochloride salt]	++ (++=0.3-0.6)	++ (++=0.1-0.25)
Cc1nc(N[C@H]2CC[C@@H](C)CC2)nc(O[C@@H]2CCOC2)c1-c1ccc(N2CCOCC2)cc1 [Example 43, 4-methyl-N-((1s,4S)-4-methylcyclohexyl)-5-(4-morpholinophenyl)-6((R)-tetrahydrofuran-3-yloxy)pyrimidin-2-amine]	++ (++=0.3-0.6)	+ (+=<0.1)
CS(=O)(=O)N1CC(Oc2nc(N[C@H]3CC[C@@H](C)CC3)ncc2-c2ccc(N3CCOCC3)cc2)C1 [Example 59, N-((1s,4s)-4-methylcyclohexyl)-4-(1-(methylsulfonyl)azetidin-3-yloxy)-5-(4-morpholinophenyl)pyrimidin-2-amine]	++ (++=0.3-0.6)	+ (+=<0.1)
CS(=O)(=O)N1CC[C@@H](COc2nc(N[C@H]3CC[C@@H](C)CC3)ncc2-c2ccc(N3CCOCC3)cc2)C1 [Example 78]	++ (++=0.3-0.6)	+ (+=<0.1)
CS(=O)(=O)N1CC(COc2nc(N[C@H]3CC[C@@H](C)CC3)ncc2-c2ccc(N3CCOCC3)cc2)C1 [Example 80, N-((1s,4s)-4-methylcyclohexyl)-4-((1-(methylsulfonyl)azetidin-3-yl)methoxy)-5-(4-morpholinophenyl)pyrimidin-2-amine]	++ (++=0.3-0.6)	+++ (+++=>0.25)
CC1CCC(Nc2ncc(-c3ccc(O[C@@H]4CCOC4)cc3)c(OC3CCOCC3)n2)CC1 (stereo partly drawn) [Example 93, N-((1s,4s)-4-methylcyclohexyl)-4-(tetrahydro-2H-pyran-4-yloxy)-5-(4-((R)-tetrahydrofuran-3-yloxy)phenyl)pyrimidin-2-amine]	+++ (+++=>0.6)	++ (++=0.1-0.25)
COC(=O)N1CCC(Oc2ccc(-c3cnc(NC4CCC(C)CC4)nc3O[C@@H]3CCOC3)cc2)C1 (stereo partly drawn) [Example 103, methyl 3-(4-(2-((1s,4S)-4-methylcyclohexylamino)-4-((R)-tetrahydrofuran-3-yloxy)pyrimidin-5-yl)phenoxy)pyrrolidine-1-carboxylate]	++ (++=0.3-0.6)	+ (+=<0.1)
CC1CCC(Nc2ncc(-c3ccc(OC4CCN(C(=O)N(C)C)C4)cc3)c(O[C@@H]3CCOC3)n2)CC1 (stereo partly drawn) [Example 112, N,N-dimethyl-3-(4-(2-((1s,4S)-4-methylcyclohexylamino)-4-((R)-tetrahydrofuran-3-yloxy)pyrimidin-5-yl)phenoxy)pyrrolidine-1-carboxamide]	++ (++=0.3-0.6)	+ (+=<0.1)
CC1CCC(Nc2ncc(-c3ccc(O[C@H]4CCOC4)cc3)c(OC3CCN(S(C)(=O)=O)CC3)n2)CC1 (stereo partly drawn) [Example 152, N-((1s,4s)-4-methylcyclohexyl)-4-(1-(methylsulfonyl)piperidin-4-yloxy)-5-(4-((S)-tetrahydrofuran-3-yloxy)phenyl)pyrimidin-2-amine]	+++ (+++=>0.6)	+++ (+++=>0.25)
COCCOc1ccc(-c2cnc(N[C@H]3CC[C@@H](C)CC3)nc2OC2CN(S(C)(=O)=O)C2)cc1 [Example 153, 5-(4-(2-methoxyethoxy)phenyl)-N-((1s,4s)-4-methylcyclohexyl)-4-(1-(methylsulfonyl)azetidin-3-yloxy)pyrimidin-2-amine]	++ (++=0.3-0.6)	+ (+=<0.1)
CC1CCCC(C)C1Nc1ncc(-c2ccc(O[C@H]3CCOC3)cc2)c(O[C@@H]2CCOC2)n1 (stereo partly drawn) [Example 170, N-(2,6-dimethylcyclohexyl)-4-((R)-tetrahydrofuran-3-yloxy)-5-(4-((S)-tetrahydrofuran-3-yloxy)phenyl)pyrimidin-2-amine]	+++ (+++=>0.6)	+ (+=<0.1)
COCCc1ccc(-c2cnc(N[C@H]3CC[C@@H](C)CC3)nc2OC2CCN(C(=O)OC)CC2)cc1 [Example 206, methyl 4-(5-(4-(2-methoxyethyl)phenyl)-2-((1s,4s)-4-methylcyclohexylamino)pyrimidin-4-yloxy)piperidine-1-carboxylate]	++ (++=0.3-0.6)	+ (+=<0.1)
CC1CCC(Nc2ncc(-c3ccc(O[C@@H]4CCOC4)cc3)c(OC3CN(S(=O)(=O)N(C)C)C3)n2)CC1 (stereo partly drawn) [Example 207, N,N-dimethyl-3-(2-((1s,4s)-4-methylcyclohexylamino)-5-(4-((R)-tetrahydrofuran-3-yloxy)phenyl)pyrimidin-4-yloxy)azetidine-1-sulfonamide]	+++ (+++=>0.6)	+ (+=<0.1)
CC1CCC(Nc2ncc(-c3ccc(O[C@H]4CCOC4)cc3)c(OC3CN(S(=O)(=O)N(C)C)C3)n2)CC1 (stereo partly drawn) [Example 214, N,N-dimethyl-3-(2-((1s,4s)-4-methylcyclohexylamino)-5-(4-((S)-tetrahydrofuran-3-yloxy)phenyl)pyrimidin-4-yloxy)azetidine-1-sulfonamide]	+++ (+++=>0.6)	+ (+=<0.1)
CC1CCC(Nc2ncc(-c3ccc(O[C@H]4CCOC4)cc3)c(OC3CN(S(=O)(=O)C4CC4)C3)n2)CC1 (stereo partly drawn) [Example 215, 4-(1-(cyclopropylsulfonyl)azetidin-3-yloxy)-N-((1s,4s)-4-methylcyclohexyl)-5-(4-((S)-tetrahydrofuran-3-yloxy)phenyl)pyrimidin-2-amine]	+++ (+++=>0.6)	+++ (+++=>0.25)
